Reference: patent US20060100195A1, “Remedies for urinary frequency” (priority 2001, published 2006)

Columns and labels:
[1] = system: pollakiuria model rats induced by sulprostone; assay: Suppression of increase in urinary frequency of rats induced by sulprostone; type: in vivo, rat; conditions: awake rats
[2] = system: pollakiuria model rats induced by acetic acid; assay: Suppression of increase in urinary frequency in rats induced by acetic acid; type: in vivo, rat; conditions: awake rats; 10 mg/kg orally; dosed 2 days after 1% acetic acid into bladder; frequency within 6 hours
Protocol: (ii) Experiment of Suppression of an Increase in Urinary Frequency in Rats Induced by Acetic Acid
Abdomen of a rat was subjected to a midline incision under anesthetization with pentobarbital (50 mg/kg, i.p.) and bladder was exposed. Urine in the bladder was removed using a syringe equipped with an intraocular injection needle (30 G×¾). After that, 0.5 ml of 1% acetic acid solution was injected into the bladder using a syringe equipped with an intraocular injection needle (30 G×¾) and injury was closed.
With regard to measurement of urination of the animal, the animal was placed in a metabolism cage and urination was recorded with the lapse of time using a urination measuring apparatus (K. K. Neuroscience).
When acetic acid was injected into bladder of rat, urination frequency increased continuously and pollakiuria where each urinated amount decreased was induced. Each of the test drugs was evaluated using the stimulated bladder.
Evaluation of the test drug was conducted in such a manner that the test drug was administered after 2 days from injection of acetic acid into the bladder and suppressing rates for the frequency increased within 6 hours thereafter was compared. Suppressing rate (%) of frequency by each compound was determined by the following formula. […]

## Cc1cc(Cl)ccc1S(=O)(=O)NC[C@H]1C2CCC(CC2)[C@@H]1/C=C\CCCC(=O)O [(1), 6-[(2S,3S)-3-(4-chloro-2-methylphenylsulfonyl-aminomethyl)bicyclo[2.2.2]octan-2-yl]-5Z-hexenoic acid]
[1]; 10 mg/kg orally, sulprostone 200 μg/kg s.c. 30 minutes later, frequency over 3 hours
  Inhibiting Rate (%) for Urinary Frequency, Sulprostone-Induced Pollakiuria Model: 58.0 ± 12.0 %
[2]
  Inhibiting Rate (%) for Urinary Frequency, Acetic Acid-Induced Pollakiuria Model: 44.3 ± 12.4 %

## Cl.O=C(CCc1ccncc1)NNC(=O)N1Cc2ccccc2Oc2ccc(Cl)cc21 [(2), 8-chlorodibenz[b,f][1.4]oxazepine-10(11H)-carboxylic acid.2-[1-oxo-3-(4-pyridinyl)propyl]hydrazide.monohydrochloride]
[1]; 10 mg/kg subcutaneously, frequency over 3 hours after sulprostone
  Inhibiting Rate (%) for Urinary Frequency, Sulprostone-Induced Pollakiuria Model: 38.2 ± 4.6 %

## CCN(Cc1cc(Cl)ccc1OCC(C)C)c1ccc(C(=O)NS(=O)(=O)c2c(C)noc2C)nn1 [(3), N-(3,5-dimethylisoxazol-4-ylsulfonyl)6-[N-(5-chloro-2-(isobutyloxy)benzyl)-N-ethylamino]pyridazine-3-carboxamide]
[1]; 3 mg/kg subcutaneously, frequency over 3 hours after sulprostone
  Inhibiting Rate (%) for Urinary Frequency, Sulprostone-Induced Pollakiuria Model: 49.2 ± 2.8 %
